Test system: NL4-3 strain of HIV-1
Experiment: HIV-1 replication assay: cyto-protection of MT4 cells infected with NL4-3 virus, CellTiter-Glo viability readout
Assay type: cell-based
Conditions: Human immunodeficiency virus 1, NL43, 120 h; concentration leading to 50% of cyto-protection; MT4 cells infected with NL4-3 virus; 5 days incubation; CellTiter-Glo; read-out: EC50
Method: The antiviral activity, particularly against HIV, of compounds according to the invention is evaluated by the protocol described below.
Preparation of Virus stock of the NL4-3 strain of HIV-1 (Adachi et al, J Virol, 1986, 59(2):284-91).
The virus was prepared as described in Lopez et al (Lopez et al, Proc Natl Acad Sci USA., 2006, 103(40):14947-52, by transfecting 2×10^6 293 T cells (CRL-1573, ATCC) with following modifications: 6 μg of NL4-3 proviral DNA molecular clone were mixed with X-tremeGENE 9 DNA transfection reagent from Roche, and used according to manufacturer's instructions. Twenty four hours later, cells were washed and fresh medium added. Forty eight hours after transfection, cell supernatants were harvested, filtered through 0.45-μm-pore-size filters, quantified for HIV-1 p24 antigen by using an Innotest HIV antigen mAb assay (Ingen) according to manufacturer's instructions, and used in infection experiments.
Serial dilutions of compounds to be tested were prepared in complete RPMI medium from 10 mM DMSO stock solutions, and distributed in a volume of 20 μl in 96 well tissue-culture treated plates (Costar 3917), in order to get 0.5% DMSO final concentration in each well, after the addition of infected cells. Control wells contained also 0.5% DMSO final concentration but no compound.
MT4 cells (from the NIH AIDS Research and Reference Reagent Program) in RPMI complete medium were counted (10×10^6 cells per well in Falcon 353047 Multiwell™ 24 well) and infected for 2 hours at 37°, at a multiplicity of infection (moi) of 0.0001-0.00001. Cells were then centrifuged for 3 min at 3000 rpm, and washed two times in 1 ml PBS to remove viruses that have not entered the cells. Infected cells were resuspended in complete RPMI at 1.25×10^6 cells/ml, and 80 μl of infected cells were distributed in each well containing compounds to be tested or control wells. The plates were then incubated at 37° C. for 5 days.
Assay used to measure the inhibition of HIV replication by the compounds (according to Gregg S. Jones et al., Antimicrobial Agents and Chemotherapy, 2009, 53 (3): 1194-1203).
After 5 days of incubation, microplates were equilibrated to room temperature for 30 min and then 50 μl of CellTiter-Glo reagent (Promega Biosciences, Inc., Madison Wis., USA) were added to each well. Cell lysis was carried out at room temperature during 10 min and luminescence was read on a Fluoroskan (Thermo Scientific).
The EC50, or effective concentration 50, is the concentration of compound leading to 50% of cyto-protection in a CellTiter-Glo® viability assay based on MT4 cells infected with NL4-3 virus (table 1).

| Structure (SMILES) | EC50 |
| --- | --- |
| CCc1cc(C2CC2)c(-c2ccc3c(c2)CCCO3)c(C(OC2CC2)C(=O)O)c1C (stereo not drawn) [Example 57, 2-(2-chroman-6-yl-3-cyclopropyl-5-ethyl-6-methyl-phenyl)-2-(cyclopropoxy)acetic acid] | 0.58 µM |
| Cc1ccc(C)c(C(OC(C)(C)C)C(=O)O)c1-c1ccc2c(c1)CCCO2 (stereo not drawn) [Example 62, 2-(tert-butoxy)-2-[2-(3,4-dihydro-2H-1-benzopyran-6-yl)-3,6-dimethylphenyl]acetic acid, reference compound] | 1.6 µM |
| CC(C)(C)OC(C(=O)O)c1c(C(F)(F)F)ccc(OCc2ccccc2)c1-c1ccc2c(c1)CCCO2 (stereo not drawn) [Example 63, 2-[3-(benzyloxy)-2-(3,4-dihydro-2H-1-benzopyran-6-yl)-6-(trifluoromethyl)phenyl]-2-(tert-butoxy)acetic acid, reference compound] | 3.2 µM |

Reference: patent US9994509B2, “Inhibitors of viral replication, their process of preparation and their therapeutical uses” (HIVIH, priority 2013, dated 2018)
